What was measured:
[1] = hygroscopicity (uptake at 90% relative humidity); type: physicochemical
solubility = type: physicochemical; conditions: in e.g., polar solvents, water, glycols, and aqueous mixtures

Structure (SMILES): COCCN(CCOC)c1nc(C)nc2c(-c3ccc(OC)cc3C)c(C)nn12.O=S(=O)(O)c1ccccc1 [polymorph H-1, 4-(bis(2-methoxyethyl)amino)-2,7-dimethyl-8-(2-methyl-4-methoxyphenyl)-[1,5-a]-pyrazolo-1,3,5-triazine benzenesulfonate]
- hygroscopicity (uptake) [1]: less than 2%
- solubility (solubility): soluble

Reference: US7153961B2, “Salt and crystalline form thereof of a corticotropin releasing factor receptor antagonist” (Bristol-Myers Squibb Pharma Co., priority 2003, dated 2006)
